According to ChEMBL document CHEMBL1201862, “PubChem BioAssay data set” (2004):
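Five compound concentrations were applied to cells in 96-well plates for 48 hours; endpoints were derived by simple linear interpolation of the resulting dose-response curve. Abbreviation: GI50, concentration required for 50% inhibition of growth.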 Activity calls are given as the source filed them. Cut-off read from the data, not from the text of the source: active = GI50 up to about 1.1 µM and inactive = higher.

Assays:
Assay in all cases: growth of human tumour cells (NCI), 48 h
786-0 = system: 786-0
A498 = system: A498
ACHN = system: ACHN
BT-549 = system: BT-549
CAKI-1 = system: CAKI-1
CCRF-CEM = system: CCRF-CEM
DLD-1 = system: DLD-1
DMS-114 = system: DMS-114
DMS-273 = system: DMS-273
DU-145 = system: DU-145
EKVX = system: EKVX
HCC 2998 = system: HCC 2998
HCT-116 = system: HCT-116
HCT-15 = system: HCT-15
HL-60 = system: HL-60
HOP-18 = system: HOP-18
HOP-62 = system: HOP-62
HOP-92 = system: HOP-92
HT-29 = system: HT-29
Hs-578T = system: Hs-578T
IGROV-1 = system: IGROV-1
K562 = system: K562
KM-20L2 = system: KM-20L2
KM12 = system: KM12
LOX IMVI = system: LOX IMVI
M14 = system: M14
M19-MEL = system: M19-MEL
MCF7 = system: MCF7
MDA-MB-231 = system: MDA-MB-231
MDA-MB-435 = system: MDA-MB-435
MDA-N = system: MDA-N
MOLT-4 = system: MOLT-4
Malme-3M = system: Malme-3M
NCI-H226 = system: NCI-H226
NCI-H23 = system: NCI-H23
NCI-H460 = system: NCI-H460
NCI-H522 = system: NCI-H522
NCI/ADR-RES = system: NCI/ADR-RES
OVCAR-3 = system: OVCAR-3
OVCAR-4 = system: OVCAR-4
OVCAR-5 = system: OVCAR-5
OVCAR-8 = system: OVCAR-8
PC-3 = system: PC-3
RPMI-8226 = system: RPMI-8226
RXF 393 = system: RXF 393
SF-268 = system: SF-268
SF-295 = system: SF-295
SF-539 = system: SF-539
SK-MEL-28 = system: SK-MEL-28
SK-MEL-2 = system: SK-MEL-2
SK-MEL-5 = system: SK-MEL-5
SK-OV-3 = system: SK-OV-3
SN12C = system: SN12C
SNB-19 = system: SNB-19
SNB-75 = system: SNB-75
SNB-78 = system: SNB-78
SR = system: SR
T47D = system: T47D
TK-10 = system: TK-10
U-251 = system: U-251
UACC-257 = system: UACC-257
UACC-62 = system: UACC-62
UO-31 = system: UO-31

## CC(C)CCCCCCCCCCCCC(=O)NCC(=O)NC1C(O)C(O)C(Nc2[nH]cnc3ncnc2-3)OC1C(O)CO (stereo not drawn)
786-0
  GI50: 225 nM (active)
A498
  GI50: 0.248 nM (active)
ACHN
  GI50: 225 nM (active)
BT-549
  GI50: 207 nM (active)
CAKI-1
  GI50: 0.472 nM (active)
CCRF-CEM
  GI50: 56.8 nM (active)
DLD-1
  GI50: 20.5 nM (active)
DMS-114
  GI50: 0.416 nM (active)
DMS-273
  GI50: 0.133 nM (active)
DU-145
  GI50: 190 nM (active)
EKVX
  GI50: 1.75 nM (active)
HCC 2998
  GI50: 0.18 nM (active)
HCT-116
  GI50: 0.479 nM (active)
HCT-15
  GI50: 65.3 nM
HL-60
  GI50: 0.57 nM (active)
HOP-18
  GI50: 0.164 nM (active)
HOP-62
  GI50: 0.453 nM (active)
HOP-92
  GI50: 0.49 nM (active)
HT-29
  GI50: 0.555 nM (active)
Hs-578T
  GI50: 172 nM (active)
IGROV-1
  GI50: 0.508 nM (active)
K562
  GI50: 43.6 nM (active)
KM-20L2
  GI50: 0.166 nM (active)
KM12
  GI50: 0.575 nM (active)
LOX IMVI
  GI50: 0.508 nM (active)
M14
  GI50: 191 nM (active)
M19-MEL
  GI50: 0.211 nM (active)
MCF7
  GI50: 23.4 nM (active)
MDA-MB-231
  GI50: 182 nM (active)
MDA-MB-435
  GI50: 224 nM (active)
MDA-N
  GI50: 229 nM (active)
MOLT-4
  GI50: 12.1 nM (active)
Malme-3M
  GI50: 0.679 nM (active)
NCI-H226
  GI50: 0.552 nM (active)
NCI-H23
  GI50: 1.25 nM (active)
NCI-H460
  GI50: 0.541 nM (active)
NCI-H522
  GI50: 0.664 nM (active)
NCI/ADR-RES
  GI50: 4.03 nM (active)
OVCAR-3
  GI50: 0.605 nM (active)
OVCAR-4
  GI50: 0.492 nM (active)
OVCAR-5
  GI50: 1.99 nM (active)
OVCAR-8
  GI50: 0.578 nM (active)
PC-3
  GI50: 183 nM (active)
RPMI-8226
  GI50: 0.525 nM (active)
RXF 393
  GI50: 0.877 nM (active)
SF-268
  GI50: 3.59 nM (active)
SF-295
  GI50: 0.604 nM (active)
SF-539
  GI50: 0.849 nM (active)
SK-MEL-28
  GI50: 31.6 nM (active)
SK-MEL-2
  GI50: 5.79 nM (active)
SK-MEL-5
  GI50: 1.14 nM (active)
SK-OV-3
  GI50: 0.671 nM (active)
SN12C
  GI50: 0.753 nM (active)
SNB-19
  GI50: 0.564 nM (active)
SNB-75
  GI50: 0.441 nM (active)
SNB-78
  GI50: 0.148 nM (active)
SR
  GI50: 426 nM (active)
T47D
  GI50: 320 nM (active)
TK-10
  GI50: 179 nM (active)
U-251
  GI50: 0.461 nM (active)
UACC-257
  GI50: 0.605 nM (active)
UACC-62
  GI50: 0.519 nM (active)
UO-31
  GI50: 0.574 nM (active)
